The test system of the experiment is oligodendrocyte precursor cells (OPCs). Kind of experiment: OPC differentiation into mature oligodendric cells (MBP / PDGFRa immunostaining). The class given is cell-based, rat. How it is done: The OPCs were purified from P7 rat brain cortices. Rodent brain cortices were diced and dissociated with papain at 37° C. After trituration, […] were resuspended in a panning buffer and incubated at room temperature sequentially on the three immunopanning dishes: Ran-2 and GaIC were used for negative selection before positive selection with 04. OPCs were released from the panning dish using 0.05% Trypsin. OPCs were seeded onto PPL-coated coverslips at 200,000 per 25 mm circle coverslip in a chemically defined culture medium with PDGFa overnight.
Sodium Butyrate (NaB) was dissolved in sterile water and added into culture medium the next day to reach desire concentration. OPC coverslips were placed into 6-well dishes, 1 ml of NaB-containing culture medium without PDGFa was added to each well. Cells were cultured for 48 hours before fixation and immunostaining. PDGFRa antibody identifies OPCs and MBP (myelin basic protein) antibody labels differentiated oligodendrocytes. Percentage of MBP-positive cells out of all PDGFRa- and MBP-positives cells were quantified.
Examining a dose response for sodium butyrate on purified oligodendroglial cultures. Sodium butyrate was added to purified oligodendroglial cultures and cells were analyzed after 48 hours of treatment for effects on survival, proliferation and differentiation. Oligodendrocyte precursor cells were immunostained with PDGFRa shown in green, oligodendrocytes were immunostained with MBP in red, cell nuclei were labeled with DAPI in blue. Percentage of MBP-positive oligodendrocytes among all oligodendroglial cells was quantified at various concentrations of sodium butyrate. The asterisks represent significance based on Students t-test with the respective controls (*p<0.05, **p<0.01)

Structures are written as SMILES.

Consider `CCCC(=O)[O-].[Na+]` [sodium butyrate], for which, under “250 μM sodium butyrate, FIG. 7”, the “number of oligodendric cells from OPC compared to the control (MBP immunohistochemistry)” value is reported as “statistically significant increase”. Moreover, the “fold increase in the numbers of differentiated and matured oligodendric cells as compared to the control” value (250 μM sodium butyrate, purified OPCs from P7 rat brain cortices, 48 hours, FIG. 1) stood at 2.6 fold. The “effect to promote OPC to differentiate into mature oligodendric cells” value (dose response 50 nM to 250 μM, 48 hours, FIG. 1) is on record as “dose-dependent manner”. Also, for the setting “each of the concentrations of sodium butyrate (50 nM, 500 nM, 5 μM, 50 μM, 250 μM), 48 hours, Student's t-test, FIG. 1”, the “increase in Oligo cells as compared to the control” value was “statistically significant increase”.
